Data reported in ChEMBL document CHEMBL1201862, “PubChem BioAssay data set” (2004).
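Tested at 5 concentrations; 48 h exposure; 96-well plates; endpoints linearly interpolated, else capped at highest concentration. The concentration for 50% growth inhibition is given as GI50.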 Activity calls are given as the source filed them. No stated cut-off is given here; in the data, active = GI50 up to about 1.1 µM and inactive = higher.

Legend:
Assay in all cases: DTP human tumour cell line panel, 48 h
MOLT-4 = system: MOLT-4
MDA-MB-231 = system: MDA-MB-231
NCI-H522 = system: NCI-H522
SF-268 = system: SF-268
ACHN = system: ACHN
LOX IMVI = system: LOX IMVI
OVCAR-8 = system: OVCAR-8
K562 = system: K562
HCT-15 = system: HCT-15
SNB-75 = system: SNB-75
MDA-MB-435 = system: MDA-MB-435
A549 = system: A549
SK-MEL-28 = system: SK-MEL-28
HOP-92 = system: HOP-92
CAKI-1 = system: CAKI-1
U-251 = system: U-251
DU-145 = system: DU-145
NCI-H226 = system: NCI-H226
MDA-N = system: MDA-N
KM12 = system: KM12

SMILES	GI50 (MOLT-4)	GI50 (MDA-MB-231)	GI50 (NCI-H522)	GI50 (SF-268)	GI50 (ACHN)	GI50 (LOX IMVI)	GI50 (OVCAR-8)	GI50 (K562)	GI50 (HCT-15) [µM]	GI50 (SNB-75)	GI50 (MDA-MB-435)	GI50 (A549)	GI50 (SK-MEL-28)	GI50 (HOP-92)	GI50 (CAKI-1)	GI50 (U-251)	GI50 (DU-145)	GI50 (NCI-H226)	GI50 (MDA-N)	GI50 (KM12)
CC12OC(=O)[C@@]3(O)CCC4C(C[C@H]5O[C@]56CC=CC(=O)[C@]46C)C45OC[C@H]6C(=O)O[C@@H]1C[C@@]6(C)[C@H](C4=O)C23O5 (some centres undefined)	0.673 µM (active)	0.885 µM (active)	0.269 µM (active)	0.309 µM (active)	1.84 µM (inactive)	1.63 µM (inactive)	0.955 µM (active)	0.53 µM (active)	0.977	6.79 µM (inactive)	1.42 µM (inactive)	3.83 µM (inactive)	0.394 µM (active)	2.11 µM (inactive)	2.64 µM (inactive)	1.99 µM (inactive)	2.56 µM (inactive)	2.7 µM (inactive)	3.4 µM (inactive)	1.85 µM (inactive)
C[N+]1(C)C/C(=C\C=C\c2ccccc2)C(=O)/C(=C/C=C/c2ccccc2)C1	4.06 µM (inactive)	10.4 µM (inactive)	3.78 µM (inactive)	4.97 µM (inactive)	49.7 µM (inactive)	12.2 µM (inactive)	14.5 µM (inactive)	4.18 µM (inactive)	40.2	6.73 µM (inactive)	4.28 µM (inactive)	39.8 µM (inactive)	3.85 µM (inactive)	17.9 µM (inactive)	65 µM (inactive)	3.89 µM (inactive)	17.2 µM (inactive)	22.3 µM (inactive)	4.48 µM (inactive)	2.93 µM (inactive)
Cc1cccc(/C=N\NC(=S)N2CCCCC2)n1	< 0.01 µM (active)	< 0.01 µM (active)	< 0.01 µM (active)	0.0451 µM (active)	0.159 µM (active)	0.0681 µM (active)	0.036 µM (active)	< 0.01 µM (active)	0.0371	0.611 µM (active)	0.56 µM (active)	0.158 µM (active)	0.532 µM (active)	0.474 µM (active)	0.126 µM (active)	< 0.01 µM (active)	0.362 µM (active)	0.184 µM (active)	0.306 µM (active)	0.13 µM (active)
C[Si](C)(C)C#Cc1cc(-c2nc3ccccc3s2)ccc1N	29.2 µM (inactive)	17.2 µM (inactive)	13.9 µM (inactive)	16.8 µM (inactive)	15.7 µM (inactive)	17.8 µM (inactive)	16.7 µM (inactive)	27.8 µM (inactive)	16.9	12.7 µM (inactive)	18.3 µM (inactive)	19.4 µM (inactive)		11.5 µM (inactive)	14.2 µM (inactive)	19.2 µM (inactive)	26.6 µM (inactive)	14.4 µM (inactive)	17.8 µM (inactive)	15.2 µM (inactive)
O=C1C([N-]S(=O)(=O)c2ccccc2)=C([n+]2ccc(Cc3ccccc3)cc2)C(=O)c2ccccc21	1.81 µM (inactive)	2.56 µM (inactive)	0.614 µM (active)	1.71 µM (inactive)	1.79 µM (inactive)	0.424 µM (active)	2.04 µM (inactive)	0.359 µM (active)	1.69	1.31 µM (inactive)	0.18 µM (active)	1.92 µM (inactive)	0.859 µM (active)	2.72 µM (inactive)	1.73 µM (inactive)	1.85 µM (inactive)	1.53 µM (inactive)	1.67 µM (inactive)	0.191 µM (active)	1.89 µM (inactive)
N=C(N)N/N=C/c1c(Cl)nc2sccn12	16.4 µM (inactive)	33.6 µM (inactive)	27 µM (inactive)	24.2 µM (inactive)	16.8 µM (inactive)	18.9 µM (inactive)	50.4 µM (inactive)	25.6 µM (inactive)	> 10	38.1 µM (inactive)	36.1 µM (inactive)	30.5 µM (inactive)	35.4 µM (inactive)	21.1 µM (inactive)	52.6 µM (inactive)	29.9 µM (inactive)	44.4 µM (inactive)	25.4 µM (inactive)	30.1 µM (inactive)	16.4 µM (inactive)
COc1ccc(C(O)/C(=N/N)c2nc3ccc(Cl)cc3nc2O)cc1 (centres undefined)	> 100 µM (inactive)	> 100 µM (inactive)	> 100 µM (inactive)	> 100 µM (inactive)	> 100 µM (inactive)	> 100 µM (inactive)	> 100 µM (inactive)	> 100 µM (inactive)	> 100	> 100 µM (inactive)	> 100 µM (inactive)	> 100 µM (inactive)	> 100 µM (inactive)	63.4 µM (inactive)	> 100 µM (inactive)	> 100 µM (inactive)	> 100 µM (inactive)	> 100 µM (inactive)	> 100 µM (inactive)	> 100 µM (inactive)
